Measured values taken from article PMC7402526, “An in vitro quantitative systems pharmacology approach for deconvolving mechanisms of drug-induced, multilineage cytopenias” (PLoS Computational Biology, 2020).
pEC50: −log10 of the molar value.

What was measured:
[1] = test system: granulocyte-macrophage progenitor (GMPs); experiment: MLTA, GMPs: concentration-response and QSP model fit; format: cell-based, human; conditions: Homo sapiens, 144 h
Procedure, shortened: (§1)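 Drug was added at time 0 to thawed human bone marrow CD34+ cells in SFEM II plus a cytokine cocktail. After 6 days at 37°C, subsets were counted by surface-marker flow with TruCount beads. Vehicle-normalized, donor-pooled data then fed an Emax model separating anti-proliferative from cell-killing effects.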

granulocytes (Gran-lin) = experiment: MLTA, Gran: concentration-response and QSP model fit; format: cell-based, human; conditions: Homo sapiens, 144 h
Procedure, shortened: (§2)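 Freeze-thawed primary human bone marrow CD34+ cells were grown in SFEM II with a multi-lineage cytokine cocktail, drug added day 0, six days at 37°C. Lineage counts came from 17-parameter flow with TruCount beads, vehicle-normalized per donor, then fitted by an Emax-based QSP model.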

[2] = test system: monocyte progenitors (monocyte prog); experiment: MLTA, MonoP: concentration-response and QSP model fit; format: cell-based, human; conditions: Homo sapiens, Monocyte, 144 h
Procedure, shortened: as §2

monocytes (monocyte-lin) = experiment: MLTA, Mono: concentration-response and QSP model fit; format: cell-based, human; conditions: Homo sapiens, Monocyte, 144 h
Procedure, shortened: as §2

MK cells (MK-lin) = experiment: MLTA, MK: concentration-response and QSP model fit; format: cell-based, human; conditions: Homo sapiens, 144 h
Procedure, shortened: as §1

[3] = test system: lymphocyte progenitors (LymP); experiment: MLTA, LymP: concentration-response and QSP model fit; format: cell-based, human; conditions: Homo sapiens, Lymphocyte, 144 h
Procedure, shortened: as §1

B cells (B-lin) = experiment: MLTA, B-lin: concentration-response and QSP model fit; format: cell-based, human; conditions: Homo sapiens, B-cell, 144 h
Procedure, shortened: as §1

[4] = test system: total dead cells (totalDeadCells); experiment: MLTA, total dead cells concentration-response; format: cell-based; conditions: Homo sapiens, 144 h, 6 days, normalized to vehicle control, read-out: total_dead normalized cell count
Procedure, shortened: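 Freeze-thawed primary human bone marrow CD34+ cells in SFEM II with cytokine cocktail, drug added day 0, 6 days at 37°C, 5% CO2. Live/dead counts by 17-parameter flow cytometry with DAPI exclusion, bead-normalized, volume-corrected to cells/mL. Normalized per donor to mean of six vehicle wells; 2–7 donors pooled.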

[5] = test system: human bone marrow-derived CD34+ cells differentiated into multiple hematopoietic lineages; experiment: MLTA, overall effects across hematopoietic lineages; format: cell-based; conditions: QSP model fit; EmaxT > 1.0 = cell-killing
Procedure, shortened: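 Thawed primary human bone marrow CD34+ cells grown in SFEM II with a multi-lineage cytokine cocktail, drug added day 0, 6 days at 37°C, 5% CO2. Subsets counted by 17-parameter flow cytometry with TruCount beads, normalized to six vehicle wells per donor (2–7 donors); Emax model fitted per cell type.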

[6] = QSP model fit of 6-day MLTA data

CC(=O)c1c(C)c2cnc(Nc3ccc(N4CCNCC4)cn3)nc2n(C2CCCC2)c1=O [palbociclib]
pEC50 [1, 6]: 7.26 | activity at 0.0002 µM ([1]; dose 0.2 nM, 6 days, normalized to vehicle control, read-out: GMPs normalized cell count): 92.3% | activity at 0.001 µM ([1]; dose 1 nM, 6 days, normalized to vehicle control, read-out: GMPs normalized cell count): 94.2% | activity at 0.005 µM ([1]; dose 5 nM, 6 days, normalized to vehicle control, read-out: GMPs normalized cell count): 92.5% | activity at 0.025 µM ([1]; dose 25 nM, 6 days, normalized to vehicle control, read-out: GMPs normalized cell count): 76.3% | activity at 0.1 µM ([1]; dose 100 nM, 6 days, normalized to vehicle control, read-out: GMPs normalized cell count): 53.9% | activity at 0.5 µM ([1]; dose 500 nM, 6 days, normalized to vehicle control, read-out: GMPs normalized cell count): 23.9% | activity at 2.5 µM ([1]; dose 2500 nM, 6 days, normalized to vehicle control, read-out: GMPs normalized cell count): 4.62% | activity at 0.0002 µM (granulocytes (Gran-lin); dose 0.2 nM, 6 days, normalized to vehicle control, read-out: Gran normalized cell count): 94.7% | activity at 0.001 µM (granulocytes (Gran-lin); dose 1 nM, 6 days, normalized to vehicle control, read-out: Gran normalized cell count): 93.9% | activity at 0.005 µM (granulocytes (Gran-lin); dose 5 nM, 6 days, normalized to vehicle control, read-out: Gran normalized cell count): 88.2% | activity at 0.025 µM (granulocytes (Gran-lin); dose 25 nM, 6 days, normalized to vehicle control, read-out: Gran normalized cell count): 53.9% | activity at 0.1 µM (granulocytes (Gran-lin); dose 100 nM, 6 days, normalized to vehicle control, read-out: Gran normalized cell count): 21.5% | activity at 0.5 µM (granulocytes (Gran-lin); dose 500 nM, 6 days, normalized to vehicle control, read-out: Gran normalized cell count): 4.56% | activity at 2.5 µM (granulocytes (Gran-lin); dose 2500 nM, 6 days, normalized to vehicle control, read-out: Gran normalized cell count): 0.37% | Emax (granulocytes (Gran-lin); parameter from QSP model fitting, read-out: Emax_drug_Gran): 0.0335% | activity at 0.0002 µM ([2]; dose 0.2 nM, 6 days, normalized to vehicle control, read-out: MonoPs normalized cell count): 101% | activity at 0.001 µM ([2]; dose 1 nM, 6 days, normalized to vehicle control, read-out: MonoPs normalized cell count): 92.3% | activity at 0.005 µM ([2]; dose 5 nM, 6 days, normalized to vehicle control, read-out: MonoPs normalized cell count): 97.3% | activity at 0.025 µM ([2]; dose 25 nM, 6 days, normalized to vehicle control, read-out: MonoPs normalized cell count): 44.4% | activity at 0.1 µM ([2]; dose 100 nM, 6 days, normalized to vehicle control, read-out: MonoPs normalized cell count): 14.1% | activity at 0.5 µM ([2]; dose 500 nM, 6 days, normalized to vehicle control, read-out: MonoPs normalized cell count): 4.6% | activity at 2.5 µM ([2]; dose 2500 nM, 6 days, normalized to vehicle control, read-out: MonoPs normalized cell count): 0.787% | Emax ([2]; parameter from QSP model fitting, read-out: Emax_drug_MonoP): 0.0351% | pEC50 (monocytes (monocyte-lin); [6]): 7.41 | activity at 0.0002 µM (monocytes (monocyte-lin); dose 0.2 nM, 6 days, normalized to vehicle control, read-out: Mon normalized cell count): 90% | activity at 0.001 µM (monocytes (monocyte-lin); dose 1 nM, 6 days, normalized to vehicle control, read-out: Mon normalized cell count): 106% | activity at 0.005 µM (monocytes (monocyte-lin); dose 5 nM, 6 days, normalized to vehicle control, read-out: Mon normalized cell count): 89.9% | activity at 0.025 µM (monocytes (monocyte-lin); dose 25 nM, 6 days, normalized to vehicle control, read-out: Mon normalized cell count): 58.8% | activity at 0.1 µM (monocytes (monocyte-lin); dose 100 nM, 6 days, normalized to vehicle control, read-out: Mon normalized cell count): 25.6% | activity at 0.5 µM (monocytes (monocyte-lin); dose 500 nM, 6 days, normalized to vehicle control, read-out: Mon normalized cell count): 13.2% | activity at 2.5 µM (monocytes (monocyte-lin); dose 2500 nM, 6 days, normalized to vehicle control, read-out: Mon normalized cell count): 23.9% | Emax (monocytes (monocyte-lin); parameter from QSP model fitting, read-out: Emax_drug_Mono): 14.2% | pEC50 (MK cells (MK-lin); [6]): 6.12 | activity at 0.0002 µM (MK cells (MK-lin); dose 0.2 nM, 6 days, normalized to vehicle control, read-out: MK normalized cell count): 86% | activity at 0.001 µM (MK cells (MK-lin); dose 1 nM, 6 days, normalized to vehicle control, read-out: MK normalized cell count): 96.6% | activity at 0.005 µM (MK cells (MK-lin); dose 5 nM, 6 days, normalized to vehicle control, read-out: MK normalized cell count): 89.1% | activity at 0.025 µM (MK cells (MK-lin); dose 25 nM, 6 days, normalized to vehicle control, read-out: MK normalized cell count): 91.2% | activity at 0.1 µM (MK cells (MK-lin); dose 100 nM, 6 days, normalized to vehicle control, read-out: MK normalized cell count): 62.2% | activity at 0.5 µM (MK cells (MK-lin); dose 500 nM, 6 days, normalized to vehicle control, read-out: MK normalized cell count): 23.6% | activity at 2.5 µM (MK cells (MK-lin); dose 2500 nM, 6 days, normalized to vehicle control, read-out: MK normalized cell count): 7.89% | Emax (MK cells (MK-lin); parameter from QSP model fitting, read-out: Emax_drug_MK): 7.37% | activity at 0.0002 µM ([3]; dose 0.2 nM, 6 days, normalized to vehicle control, read-out: LymP normalized cell count): 86.1% | activity at 0.001 µM ([3]; dose 1 nM, 6 days, normalized to vehicle control, read-out: LymP normalized cell count): 88% | activity at 0.005 µM ([3]; dose 5 nM, 6 days, normalized to vehicle control, read-out: LymP normalized cell count): 73.1% | activity at 0.025 µM ([3]; dose 25 nM, 6 days, normalized to vehicle control, read-out: LymP normalized cell count): 38% | activity at 0.1 µM ([3]; dose 100 nM, 6 days, normalized to vehicle control, read-out: LymP normalized cell count): 12.4% | activity at 0.5 µM ([3]; dose 500 nM, 6 days, normalized to vehicle control, read-out: LymP normalized cell count): 5.18% | activity at 2.5 µM ([3]; dose 2500 nM, 6 days, normalized to vehicle control, read-out: LymP normalized cell count): 4.62% | Emax ([3]; parameter from QSP model fitting, read-out: Emax_drug_LymP): 0.032% | pEC50 (B cells (B-lin); [6]): 7.04 | activity at 0.0002 µM (B cells (B-lin); dose 0.2 nM, 6 days, normalized to vehicle control, read-out: B-lin normalized cell count): 93.4% | activity at 0.001 µM (B cells (B-lin); dose 1 nM, 6 days, normalized to vehicle control, read-out: B-lin normalized cell count): 106% | activity at 0.005 µM (B cells (B-lin); dose 5 nM, 6 days, normalized to vehicle control, read-out: B-lin normalized cell count): 76.6% | activity at 0.025 µM (B cells (B-lin); dose 25 nM, 6 days, normalized to vehicle control, read-out: B-lin normalized cell count): 67.3% | activity at 0.1 µM (B cells (B-lin); dose 100 nM, 6 days, normalized to vehicle control, read-out: B-lin normalized cell count): 41.4% | activity at 0.5 µM (B cells (B-lin); dose 500 nM, 6 days, normalized to vehicle control, read-out: B-lin normalized cell count): 13.8% | activity at 2.5 µM (B cells (B-lin); dose 2500 nM, 6 days, normalized to vehicle control, read-out: B-lin normalized cell count): 8.85% | Emax (B cells (B-lin); parameter from QSP model fitting, read-out: Emax_drug_B): 49.9% | activity at 0.0002 µM ([4]; dose 0.2 nM): 101% | activity at 0.001 µM ([4]; dose 1 nM): 102% | activity at 0.005 µM ([4]; dose 5 nM): 103% | activity at 0.025 µM ([4]; dose 25 nM): 64.6% | activity at 0.1 µM ([4]; dose 100 nM): 40.5% | activity at 0.5 µM ([4]; dose 500 nM): 28.9% | activity at 2.5 µM ([4]; dose 2500 nM): 22.7% | EmaxT effects across cell types (overall statement) [5]: anti-proliferation effects on essentially just the HSCs and GMPs
